From patent publication US10836725B2, “Modulators of the integrated stress pathway” (Calico Life Sciences LLC, priority 2016, dated 2020)

System: ATF4 luciferase reporter
Experiment: ATF4-Luc assay in HEK293T cells carrying the ATF4 luciferase reporter (in vitro model of VWMD)
Type: cell-based, human
Settings: Homo sapiens, HEK-293T, 1 μg/mL tunicamycin, 7 hours, luminescence (One Glo)
Experimental: In order to test exemplary compounds of the invention in a cellular context, a stable VWMD cell line was first constructed. The ATF4 reporter was prepared by fusing the human full-length ATF4 5′-UTR (NCBI Accession No. BC022088.2) in front of the firefly luciferase (FLuc) coding sequence lacking the initiator methionine as described in Sidrauski et al (eLife 2013). The construct was used to produce recombinant retroviruses using standard methods and the resulting viral supernatant was used to transduce HEK293T cells, which were then subsequently selected with puromycin to generate a stable cell line.
HEK293T cells carrying the ATF4 luciferase reporter were plated on polylysine coated 384-well plates (Greiner Bio-one) at 30,000 cells per well. Cells were treated the next day with 1 μg/mL tunicamycin and 200 nM of a compound of Formula (I) for 7 hours. Luminescence was measured using One Glo (Promega) as specified by the manufacturer. Cells were maintained in DMEM with L-glutamine supplemented with 10% heat-inactivated FBS (Gibco) and Antibiotic-Antimycotic solution (Gibco).
Table 2 below summarizes the EC50 data obtained using the ATF4-Luc assay for exemplary compounds of the invention.

SMILES	EC50 [nM]
Cc1cccc(OCCNC(=O)C23CC(NC(=O)COc4ccc(Cl)cc4)(C2)C3)c1 [Compound 101, 3-[2-(4-chlorophenoxy)acetamido]-N-[2-(3-methylphenoxy)ethyl]bicyclo[1.1.1]-pentane-1-carboxamide]	1000 to 2000
O=C(COc1ccc(Cl)cc1)NC12CC(C(=O)NCCOc3ccc(F)cc3)(C1)C2 [Compound 102, 3-[2-(4-chlorophenoxy)acetamido]-N-[2-(4-fluorophenoxy)ethyl]bicyclo[1.1.1]-pentane-1-carboxamide]	250 to 500
Cc1cc(OCCNC(=O)C23CC(NC(=O)COc4ccc(Cl)cc4)(C2)C3)ccc1Cl [Compound 103, N-[2-(4-chloro-3-methylphenoxy)ethyl]-3-[2-(4-chlorophenoxy)acetamido]-bicyclo[1.1.1]pentane-1-carboxamide]	250 to 500
O=C(COc1ccc(Cl)cc1)NC12CC(C(=O)NCCOc3cccc(F)c3)(C1)C2 [Compound 104, 3-[2-(4-chlorophenoxy)acetamido]-N-[2-(3-fluorophenoxy)ethyl]bicyclo-[1.1.1]pentane-1-carboxamide]	250 to 500
Cc1ccc(OCCNC(=O)C23CC(NC(=O)COc4ccc(Cl)cc4)(C2)C3)cc1 [Compound 105, 3-[2-(4-chlorophenoxy)acetamido]-N-[2-(4-methylphenoxy)ethyl]bicyclo-[1.1.1]pentane-1-carboxamide]	500 to 1000
CC(C)c1cc(CNC(=O)C23CCC(NC(=O)COc4ccc(Cl)c(F)c4)(CC2)CC3O)on1 (stereo not shown) [Compound 109, 4-[2-(4-chloro-3-fluorophenoxy)acetamido]-2-hydroxy-N-{[3-(propan-2-yl)-1,2-oxazol-5-yl]methyl}bicyclo[2.2.2]octane-1-carboxamide]	500 to 1000
Cc1cc(C)c(CNC(=O)C23CCC(NC(=O)COc4ccc(Cl)c(F)c4)(CC2)CC3O)cn1 (stereo not shown) [Compound 111, 4-[2-(4-chloro-3-fluorophenoxy)acetamido]-N-[(4,6-dimethylpyridin-3-yl)methyl]-2-hydroxybicyclo[2.2.2]octane-1-carboxamide]	> 2000
O=C(COc1ccc(Cl)c(F)c1)NC12CCC(C(=O)NCc3cncc(F)c3)(CC1)C(O)C2 (stereo not shown) [Compound 112, 4-[2-(4-chloro-3-fluorophenoxy)acetamido]-N-[(5-fluoropyridin-3-yl)methyl]-2-hydroxybicyclo[2.2.2]octane-1-carboxamide]	> 2000
O=C(COc1ccc(Cl)c(F)c1)NC12CCC(C(=O)NCc3cocn3)(CC1)C(O)C2 (stereo not shown) [Compound 115, 4-[2-(4-chloro-3-fluorophenoxy)acetamido]-2-hydroxy-N-[(1,3-oxazol-4-yl)methyl]bicyclo[2.2.2]octane-1-carboxamide]	> 2000
Cn1ccc(CNC(=O)C23CCC(NC(=O)COc4ccc(Cl)c(F)c4)(CC2)CC3O)n1 (stereo not shown) [Compound 116, 4-[2-(4-chloro-3-fluorophenoxy)acetamido]-2-hydroxy-N-[(1-methyl-1H-pyrazol-3-yl)methyl]bicyclo[2.2.2]octane-1-carboxamide]	> 2000
Cc1cnc(CNC(=O)C23CCC(NC(=O)COc4ccc(Cl)c(F)c4)(CC2)CC3O)cn1 (stereo not shown) [Compound 119, 4-[2-(4-chloro-3-fluorophenoxy)acetamido]-2-hydroxy-N-[(5-methylpyrazin-2-yl)methyl]bicyclo[2.2.2]octane-1-carboxamide]	1000 to 2000
CS(=O)(=O)c1ccc(CNC(=O)C23CCC(NC(=O)COc4ccc(Cl)c(F)c4)(CC2)CC3O)nc1 (stereo not shown) [Compound 121, 4-[2-(4-chloro-3-fluorophenoxy)acetamido]-2-hydroxy-N-{[5-(methanesulfonyl)pyridin-2-yl]methyl}bicyclo[2.2.2]octane-1-carboxamide]	> 2000
Cc1cccc(CNC(=O)C23CCC(NC(=O)COc4ccc(Cl)c(F)c4)(CC2)CC3O)c1 (stereo not shown) [Compound 124, 4-[2-(4-chloro-3-fluorophenoxy)acetamido]-2-hydroxy-N-[(3-methylphenyl)methyl]bicyclo[2.2.2]octane-1-carboxamide]	500 to 1000
O=C(COc1ccc(Cl)c(F)c1)NC12CCC(C(=O)NCc3cc(F)cc(C(F)(F)F)c3)(CC1)C(O)C2 (stereo not shown) [Compound 126, 4-[2-(4-chloro-3-fluorophenoxy)acetamido]-N-{[3-fluoro-5-(trifluoromethyl)phenyl]methyl}-2-hydroxybicyclo[2.2.2]octane-1-carboxamide]	> 2000
COc1cccc(CNC(=O)C23CCC(NC(=O)COc4ccc(Cl)c(F)c4)(CC2)CC3O)c1 (stereo not shown) [Compound 127, 4-[2-(4-chloro-3-fluorophenoxy)acetamido]-2-hydroxy-N-[(3-methoxyphenyl)methyl]bicyclo[2.2.2]octane-1-carboxamide]	1000 to 2000
O=C(COc1ccc(Cl)c(F)c1)NC12CCC(C(=O)NCc3cccc(F)c3)(CC1)C(O)C2 (stereo not shown) [Compound 129, 4-[2-(4-chloro-3-fluorophenoxy)acetamido]-N-[(3-fluorophenyl)methyl]-2-hydroxybicyclo[2.2.2]octane-1-carboxamide]	250 to 500

Further lines, results first:

EC50 [nM]	SMILES
< 250	O=C(COc1ccc(Cl)c(F)c1)NC12CCC(C(=O)NCc3ccc(C(F)(F)F)cn3)(CC1)[C@H](O)C2 (single isomer, unassigned) [Compound 113]
< 250	O=C(COc1ccc(Cl)c(F)c1)NC12CCC(C(=O)NCc3ccc(C(F)(F)F)cn3)(CC1)[C@@H](O)C2 (single isomer, unassigned) [Compound 114]
< 250	O=C(COc1ccc(Cl)cc1)NC12CC(C(=O)NCCOc3ccc(Cl)cc3)(C1)C2 [Compound 100, 3-[2-(4-chlorophenoxy)acetamido]-N-[2-(4-chlorophenoxy)ethyl]bicyclo[1.1.1]-pentane-1-carboxamide]
< 250	O=C(COc1ccc(Cl)c(F)c1)NC12CCC(C(=O)NCc3ccc(C(F)(F)F)cn3)(CC1)C(O)C2 (stereo not shown) [Compound 106]
< 250	O=C(COc1ccc(Cl)c(F)c1)NC12CCC(C(=O)NCCOc3ccc(Cl)cc3)(CC1)C(O)C2 (stereo not shown) [Compound 107, 4-[2-(4-chloro-3-fluorophenoxy)acetamido]-N-[2-(4-chlorophenoxy)ethyl]-2-hydroxybicyclo[2.2.2]octane-1-carboxamide]
< 250	O=C(COc1ccc(Cl)c(F)c1)NC12CCC(C(=O)NCc3ccc(Cl)cn3)(CC1)C(O)C2 (stereo not shown) [Compound 108, 4-[2-(4-chloro-3-fluorophenoxy)acetamido]-N-[(5-chloropyridin-2-yl)methyl]-2-hydroxybicyclo[2.2.2]octane-1-carboxamide]
< 250	O=C(COc1ccc(Cl)c(F)c1)NC12CCC(C(=O)NCc3ccc(C(F)(F)F)cc3)(CC1)C(O)C2 (stereo not shown) [Compound 110, 4-[2-(4-chloro-3-fluorophenoxy)acetamido]-2-hydroxy-N-{[4-(trifluoromethyl)phenyl]methyl}bicyclo[2.2.2]octane-1-carboxamide]
< 250	O=C(COc1ccc(Cl)c(F)c1)NC12CC(C(=O)NCc3ccc(Cl)cc3)(C1)C2 [Compound 117, 3-[2-(4-chloro-3-fluorophenoxy)acetamido]-N-[(4-chlorophenyl)methyl]bicyclo[1.1.1]pentane-1-carboxamide]
< 250	O=C(COc1ccc(Cl)c(F)c1)NC12CC(C(=O)NCc3ccc(C(F)(F)F)cn3)(C1)C2 [Compound 118, 3-[2-(4-chloro-3-fluorophenoxy)acetamido]-N-{[5-(trifluoromethyl)pyridin-2-yl]methyl}bicyclo[1.1.1]pentane-1-carboxamide]
< 250	O=C(COc1ccc(Cl)c(F)c1)NC12CCC(C(=O)NCc3cc(C(F)(F)F)ccn3)(CC1)C(O)C2 (stereo not shown) [Compound 120, 4-[2-(4-chloro-3-fluorophenoxy)acetamido]-2-hydroxy-N-{[4-(trifluoromethyl)pyridin-2-yl]methyl}bicyclo[2.2.2]octane-1-carboxamide]
< 250	O=C(COc1ccc(F)cc1)NC12CCC(C(=O)NCc3ccc(C(F)(F)F)cn3)(CC1)C(O)C2 (stereo not shown) [Compound 122, 4-[2-(4-fluorophenoxy)acetamido]-2-hydroxy-N-{[5-(trifluoromethyl)pyridin-2-yl]methyl}bicyclo[2.2.2]octane-1-carboxamide]
< 250	O=C(COc1ccc(F)cc1)NC12CCC(C(=O)NCc3ccc(C(F)(F)F)cc3)(CC1)C(O)C2 (stereo not shown) [Compound 123, 4-[2-(4-fluorophenoxy)acetamido]-2-hydroxy-N-{[4-(trifluoromethyl)phenyl]methyl}bicyclo[2.2.2]octane-1-carboxamide]
< 250	Cc1ccc(CNC(=O)C23CCC(NC(=O)COc4ccc(Cl)c(F)c4)(CC2)CC3O)cc1 (stereo not shown) [Compound 125, 4-[2-(4-chloro-3-fluorophenoxy)acetamido]-2-hydroxy-N-[(4-methylphenyl)methyl]bicyclo[2.2.2]octane-1-carboxamide]
< 250	COc1ccc(CNC(=O)C23CCC(NC(=O)COc4ccc(Cl)c(F)c4)(CC2)CC3O)cc1 (stereo not shown) [Compound 128, 4-[2-(4-chloro-3-fluorophenoxy)acetamido]-2-hydroxy-N-[(4-methoxyphenyl)methyl]bicyclo[2.2.2]octane-1-carboxamide]
< 250	O=C(COc1ccc(Cl)c(F)c1)NC12CCC(C(=O)NCc3ccc(F)cc3)(CC1)C(O)C2 (stereo not shown) [Compound 130, 4-[2-(4-chloro-3-fluorophenoxy)acetamido]-N-[(4-fluorophenyl)methyl]-2-hydroxybicyclo[2.2.2]octane-1-carboxamide]
